Source: patent US9884863B2, “STAT3 inhibitor” (Board of Regents, The University of Texas System, priority 2013, dated 2018)
pIC50: −log10 of the molar value. Where two headings read alike, the source gives them in different places.

Assays:
MCF-7 = experiment: MTS cell proliferation assay, MCF-7; type: cell-based, human; details: for pIC50: Homo sapiens
Description: Cancer cells (breast cancer cell lines MCF-7, MDA-MB-361, SKBR3 and MDA-MB-231, pancreatic cancer cell lines AsPC-1. […] Proliferation was measured by treating cells with the 3-(4,5-dimethylthiazol-2-yl)-5-(3-carboxymethoxyphenyl)-2-(4-sulfophenyl)-2H-tetrazolium) (MTS) in a CellTiter 96t AQueous Non-Radioactive Cell Proliferation Assay kit from Promega, Madison, Wis., USA). Absorbance of all wells was determined by measuring OD at 550 nm after 1 hr incubation at 37° C. on a 96-well iMark™ Microplate Absorbance Reader (BioRad, Hercules, Calif.). Each individual compound was tested in quadruplicate wells for each concentration, and the results were reported as mean absorption±s.e.
In Vitro Determination of Effects of Synthesized Compounds on Cancer Cell Proliferation. Cancer cells (breast cancer cell lines MCF-7 and MDA-MB-231, pancreatic cancer cell lines AsPC-1 and Panc-1) were […], 0.01, 0.1, 1, 5, 10, […] Proliferation was measured by treating cells with the 3-(4,5-dimethylthiazol-2-yl)-5-(3-carboxymethoxyphenyl)-2-(4-sulfophenyl)-2H-tetrazolium) (MTS) in a CellTiter 96t Aqueous Non-Radioactive Cell Proliferation Assay kit (Promega, Madison, Wis., USA). Absorbance of all wells was determined by measuring OD at 550 nm after 1 h incubation at 37° C. on a 96-well iMark™ Microplate Absorbance Reader (BioRad, Hercules, Calif.). Each individual compound was tested in quadruplicate wells for each concentration.

MDA-MB-231 = experiment: MTS cell proliferation assay, MDA-MB-231; type: cell-based, human; details: Homo sapiens, MDA-MB-231, >10 = no effect
Description: (§1) Cancer cells (breast cancer cell lines MCF-7, MDA-MB-361, SKBR3 and MDA-MB-231, pancreatic cancer cell lines AsPC-1. BxPC3 and Panc-1) were seeded in 96-well plates at a density of 1000-2000 cells/well and treated with DMSO, 0.01, 0.1, 1, 5, 10, and […] of STAT3 individual inhibitors for 72 hrs. Proliferation was measured by treating cells with the 3-(4,5-dimethylthiazol-2-yl)-5-(3-carboxymethoxyphenyl)-2-(4-sulfophenyl)-2H-tetrazolium) (MTS) in a CellTiter 96t AQueous Non-Radioactive Cell Proliferation Assay kit from Promega, Madison, Wis., USA). Absorbance of all wells was determined by measuring OD at 550 nm after 1 hr incubation at 37° C. on a 96-well iMark™ Microplate Absorbance Reader (BioRad, Hercules, Calif.).
In Vitro Determination of Effects of Synthesized Compounds on Cancer Cell Proliferation. Cancer cells (breast cancer cell lines MCF-7 and MDA-MB-231, pancreatic cancer cell lines AsPC-1 and Panc-1) were seeded in 96-well plates at a density of 2×10^3 cells/well and treated with DMSO, 0.01, 0.1, 1, 5, 10, and 100 μM of individual STAT3 inhibitors for 72 h. Proliferation was measured by treating cells with the 3-(4,5-dimethylthiazol-2-yl)-5-(3-carboxymethoxyphenyl)-2-(4-sulfophenyl)-2H-tetrazolium) (MTS) in a CellTiter 96t Aqueous Non-Radioactive Cell Proliferation Assay kit (Promega, Madison, Wis., USA). Absorbance of all wells was determined by measuring OD at 550 nm after 1 h incubation at 37° C. on a 96-well iMark™ Microplate Absorbance Reader (BioRad, Hercules, Calif.). Each individual compound was tested in quadruplicate wells for each concentration. […]

AsPC1 = experiment: MTS cell proliferation assay, AsPC1; type: cell-based, human; details: Homo sapiens, ASPC1, >10 = no effect
Description: as §1, with “Calif.). Each individual compound was tested in quadruplicate wells for each concentration, and the results were reported as mean absorption±s.e.” for “Calif.).”
(§2) In Vitro Determination of Effects of Synthesized Compounds on Cancer Cell Proliferation. Cancer cells (breast cancer cell lines MCF-7 and MDA-MB-231, pancreatic cancer cell lines AsPC-1 and Panc-1) were seeded in 96-well plates at a density of 2×10^3 cells/well and treated with DMSO, 0.01, 0.1, 1, 5, 10, and 100 μM of individual STAT3 inhibitors for 72 h. Proliferation was measured by treating cells with the 3-(4,5-dimethylthiazol-2-yl)-5-(3-carboxymethoxyphenyl)-2-(4-sulfophenyl)-2H-tetrazolium) (MTS) in a CellTiter 96t Aqueous Non-Radioactive Cell Proliferation Assay kit (Promega, Madison, Wis., USA). Absorbance of all wells was determined by measuring OD at 550 nm after 1 h incubation at 37° C. on a 96-well iMark™ Microplate Absorbance Reader (BioRad, Hercules, Calif.). Each individual compound was tested in quadruplicate wells for each concentration.

Panc-1 = experiment: MTS cell proliferation assay, Panc-1; type: cell-based, human; details: Homo sapiens, PANC-1, >10 = no effect
Description: as §1, with “Calif.). Each individual compound was tested in quadruplicate wells for each concentration, and the results were reported as mean absorption±s.e.” for “Calif.).”
as §2

Row | melting point [°C] | SMILES | other results
1 | – | N#C/C(=C\c1cccc(Br)n1)C(=O)Nc1ccc2c(c1)S(=O)(=O)C=C2 [Compound 10] | pIC50 (MCF-7; MCF7, Example 4 numbering, 72 h, >10 = no effect, read-out: IC50 MCF-7 (Table 4)): 5.48; pIC50 (MDA-MB-231; Example 4 numbering, 72 h, read-out: IC50 MDA-MB-231 (Table 4)): 5.82; pIC50 (AsPC1; Example 4 numbering, 72 h, read-out: IC50 AsPC1 (Table 4)): 5.81; pIC50 (Panc-1; Example 4 numbering, 72 h, read-out: IC50 Panc-1 (Table 4)): 5.79
2 | – | NCCCCCOc1ccc(Cl)cc1C(=O)Nc1ccc([N+](=O)[O-])cc1Cl [HJC-3-89, 2-(5-Amino-pentyloxy)-5-chloro-N-(2-chloro-4-nitro-phenyl)benzamide] | pIC50 (MCF-7; MCF7, 72 h, read-out: IC50 MCF-7 (Table 1)): 5.46; inhibition on breast cancer cell proliferation (FIG. 1) (MCF-7; MCF-7, 48 hr, μM concentrations): significant inhibition; pIC50 (MDA-MB-231; ER-negative breast cancer, 72 hrs, read-out: IC50 MDA-MB-231 (Table 1)): 5.51; pIC50 (AsPC1; pancreatic cancer, 72 hrs, read-out: IC50 AsPC1 (Table 1)): 5.68; pIC50 (Panc-1; pancreatic cancer, 72 hrs, read-out: IC50 Panc-1 (Table 1)): 5.33
3 | 253 to 254 | N#C/C(=C\c1c(F)cccc1F)C(=O)Nc1ccc2c(c1)S(=O)(=O)C=C2 [HJC-5-91, 2-Cyano-3-(2,6-difluorophenyl)-N-(1,1-dioxo-1H-1λ^6-benzo[b]thiophen-6-yl)acrylamide] | –
4 | 254 to 255 | N#C/C(=C\c1ccccc1[N+](=O)[O-])C(=O)Nc1ccc2c(c1)S(=O)(=O)C=C2 [RMF-1-36, 2-Cyano-N-(1,1-dioxo-1H-1λ^6-benzo[b]thiophen-6-yl)-3-(2-nitrophenyl)acrylamide] | –
5 | 234 to 235 | N#C/C(=C\c1ccccn1)C(=O)Nc1ccc2c(c1)S(=O)(=O)C=C2 [HJC-5-90, 2-Cyano-N-(1,1-dioxo-1H-1λ^6-benzo[b]thiophen-6-yl)-3-pyridin-2-yl-acrylamide] | –
6 | 251 to 252 | N#C/C(=C\c1cccnc1Cl)C(=O)Nc1ccc2c(c1)S(=O)(=O)C=C2 [RMF-1-25, 3-(2-Chloro-pyridin-3-yl)-2-cyano-N-(1,1-dioxo-1H-1λ^6-benzo[b]thiophen-6-yl)acrylamide] | –
7 | 255 to 256 | N#C/C(=C\c1cccnc1)C(=O)Nc1ccc2c(c1)S(=O)(=O)C=C2 [RMF-1-22, 2-Cyano-N-(1,1-dioxo-1H-1λ^6-benzo[b]thiophen-6-yl)-3-pyridin-3-yl-acrylamide] | –
8 | 255 to 256 | Cc1cc(C)c(/C=C(\C#N)C(=O)Nc2ccc3c(c2)S(=O)(=O)C=C3)c(C)c1 [RMF-1-14, 2-Cyano-N-(1,1-dioxo-1H-1λ^6-benzo[b]thiophen-6-yl)-3-(2,4,6-trimethylphenyl)acrylamide] | –
9 | 272 to 273 | N#C/C(=C\c1ccc([N+](=O)[O-])cc1)C(=O)Nc1ccc2c(c1)S(=O)(=O)C=C2 [RMF-1-37, 2-Cyano-N-(1,1-dioxo-1H-1λ^6-benzo[b]thiophen-6-yl)-3-(4-nitrophenyl)acrylamide] | –
10 | 234 to 235 | N#C/C(=C\c1cccc(Cl)c1)C(=O)Nc1ccc2c(c1)S(=O)(=O)C=C2 [HJC-5-89, 3-(3-Chlorophenyl)-2-cyano-N-(1,1-dioxo-1H-1λ^6-benzo[b]thiophen-6-yl)acrylamide] | –
11 | 284 to 285 | N#C/C(=C\c1ccccc1O)C(=O)Nc1ccc2c(c1)S(=O)(=O)C=C2 [RMF-1-9, 2-Cyano-N-(1,1-dioxo-1H-1λ^6-benzo[b]thiophen-6-yl)-3-(2-hydroxyphenyl)acrylamide] | –
12 | 224 to 225 | COc1cc(/C=C(\C#N)C(=O)Nc2ccc3c(c2)S(=O)(=O)C=C3)cc(OC)c1OC [RMF-1-38, 2-Cyano-N-(1,1-dioxo-1H-1λ^6-benzo[b]thiophen-6-yl)-3-(3,4,5-trimethoxyphenyl)acrylamide] | –
13 | 300 to 301 | N#C/C(=C\c1c[nH]c2ncccc12)C(=O)Nc1ccc2c(c1)S(=O)(=O)C=C2 [RMF-1-17, 2-Cyano-N-(1,1-dioxo-1H-1λ^6-benzo[b]thiophen-6-yl)-3-(1H-pyrrolo[2,3-b]pyridin-3-yl)acrylamide] | –
14 | 289 to 290 | N#C/C(=C\c1ccc(Br)cc1)C(=O)Nc1ccc2c(c1)S(=O)(=O)C=C2 [RMF-1-8, 3-(4-Bromophenyl)-2-cyano-N-(1,1-dioxo-1H-1λ^6-benzo[b]thiophen-6-yl)acrylamide] | –
15 | 279 to 280 | CN(C)c1ccc(/C=C(\C#N)C(=O)Nc2ccc3c(c2)S(=O)(=O)C=C3)cc1 [RMF-1-16, 2-Cyano-3-(4-dimethylaminophenyl)-N-(1,1-dioxo-1H-1λ^6-benzo[b]thiophen-6-yl)acrylamide] | –
16 | 262 to 263 | N#C/C(=C\c1cccnc1F)C(=O)Nc1ccc2c(c1)S(=O)(=O)C=C2 [RMF-1-24, 2-Cyano-N-(1,1-dioxo-1H-1λ^6-benzo[b]thiophen-6-yl)-3-(2-fluoro-pyridin-3-yl)acrylamide] | –
17 | 223 to 224 | COc1ccccc1/C=C(\C#N)C(=O)Nc1ccc2c(c1)S(=O)(=O)C=C2 [RMF-1-12, 2-Cyano-N-(1,1-dioxo-1H-1λ^6-benzo[b]thiophen-6-yl)-3-(2-methoxyphenyl)acrylamide] | –
18 | 226 to 227 | N#C/C(=C\c1ccccc1Br)C(=O)Nc1ccc2c(c1)S(=O)(=O)C=C2 [RMF-1-7, 3-(2-Bromophenyl)-2-cyano-N-(1,1-dioxo-1H-1λ^6-benzo[b]thiophen-6-yl)acrylamide] | –
19 | 275 to 276 | COc1ccc(/C=C(\C#N)C(=O)Nc2ccc3c(c2)S(=O)(=O)C=C3)cc1 [RMF-1-13, 2-Cyano-N-(1,1-dioxo-1H-1λ^6-benzo[b]thiophen-6-yl)-3-(4-methoxyphenyl)acrylamide] | –
20 | 245 to 246 | COc1cccc(/C=C(\C#N)C(=O)Nc2ccc3c(c2)S(=O)(=O)C=C3)c1 [RMF-1-35, 2-Cyano-N-(1,1-dioxo-1H-1λ^6-benzo[b]thiophen-6-yl)-3-(3-methoxyphenyl)acrylamide] | –
21 | 255 to 256 | COc1ccc(/C=C(\C#N)C(=O)Nc2ccc3c(c2)S(=O)(=O)C=C3)cn1 [RMF-1-28, 2-Cyano-N-(1,1-dioxo-1H-1λ^6-benzo[b]thiophen-6-yl)-3-(6-methoxy-pyridin-3-yl)acrylamide] | –
